Assay results from US20140194480A1, “METHODS FOR THE CONTROL OF TERMITES AND ANTS” (SYNGENTA PARTICIPATIONS AG, priority 2011, published 2014).

Legend:
termites [1] = assay: Transfer test: termites exposed 6 h on treated sand, then combined with unexposed termites; total termite mortality; type: in vivo; conditions: for % mortality: Table 3; for % mortality of the total termites: Table 4
Description: Washed sand is treated with the experimental compound in a volatile solvent, so as to deliver the desired concentration w/w in the solvent free sand. Once the solvent has evaporated, the sand is thoroughly mixed and made up with deionised water to 3% w/w moisture content. Ca. 5 g of the so treated sand is placed in the base of a 9 cm Petri dish. 20 worker termites are placed on the treated sand and placed in a dark room under similar temperature to their culture colony. After 6 hours the termites are assessed for mortality and carefully removed from the treated sand, before being placed in a similar Petri dish of untreated sand (3% moisture content). 20 further termites are taken from the same colony and placed in the Petri dish with the exposed termites, along with a section of filter paper ca. 2 cm^2. The lid of the Petri dish is replaced and sealed with laboratory film. The so constructed Petri dish arena are placed in a dark room with a similar temperature to the culture colony. Assessments of total termite mortality, symptomology and behaviour are made at daily intervals.

termites [2] = assay: Treated sand column test: termite mortality and distance tunnelled into treated sand; type: in vivo
Description: Washed sand was treated with the experimental compound diluted in acetone. The acetone was allowed to evaporate, and the sand thoroughly mixed. De-ionised water was added to the treated sand to give a final water content of 3%. The treated sand was then packed into a glass tube with an internal diameter of 13.2 mm, to produce a 4 cm column. This was held in place at one end with a section of 7% agar. Sections of filter paper were placed at both ends of the column. Approximately 25 mixed age termites were added to the end of the tube containing the agar. Both ends were then sealed with rubber bungs. Assessments were made 1, 2, 3, 7 and 21 days after infestation, measuring termite mortality and the distance tunnelled into the treated sand.

[3] = 2.5 ppm, 0 days after treatment
[4] = 2.5 ppm, 2 days after treatment
[5] = 2.5 ppm, 3 days after treatment
[6] = 2.5 ppm, 6 days after treatment
[7] = 2.5 ppm, 7 days after treatment
[8] = 2.5 ppm, 8 days after treatment
[9] = 2.5 ppm, 9 days after treatment
[10] = 2.5 ppm, 14 days after treatment
[11] = 1.25 ppm, 0 days after treatment
[12] = 1.25 ppm, 1 day after treatment
[13] = 1.25 ppm, 2 days after treatment
[14] = 1.25 ppm, 3 days after treatment
[15] = 1.25 ppm, 6 days after treatment
[16] = 1.25 ppm, 7 days after treatment
[17] = 1.25 ppm, 8 days after treatment
[18] = 1.25 ppm, 9 days after treatment
[19] = 1.25 ppm, 14 days after treatment

Cc1cc(C2=NOC(c3cc(Cl)cc(Cl)c3)(C(F)(F)F)C2)ccc1C(=O)NC1(C)CSC1 (racemic) [Compound 1]
% mortality (termites [1]; 10 ppm, 2 days after application): 0% | % mortality (termites [1]; 10 ppm, 3 days after application): 14% | % mortality (termites [1]; 10 ppm, 6 days after application): 30% | % mortality (termites [1]; 10 ppm, 7 days after application): 38% | % mortality (termites [1]; 10 ppm, 8 days after application): 43% | % mortality (termites [1]; 10 ppm, 9 days after application): 50% | % mortality (termites [1]; 10 ppm, 10 days after application): 67% | % mortality (termites [1]; 10 ppm, 13 days after application): 78% | % mortality (termites [1]; 10 ppm, 14 days after application): 83% | % mortality (termites [1]; 10 ppm, 15 days after application): 87% | % mortality (termites [1]; 10 ppm, 16 days after application): 88% | % mortality (termites [1]; 10 ppm, 17 days after application): 92% | % mortality of the total termites (termites [1]; [3]): 0% | % mortality of the total termites (termites [1]; 2.5 ppm, 1 day after treatment): 0% | % mortality of the total termites (termites [1]; [4]): 0.5% | % mortality of the total termites (termites [1]; [5]): 0.5% | % mortality of the total termites (termites [1]; [6]): 0.5% | % mortality of the total termites (termites [1]; [7]): 1% | % mortality of the total termites (termites [1]; [8]): 1% | % mortality of the total termites (termites [1]; [9]): 1.5% | % mortality of the total termites (termites [1]; [10]): 1.5% | % mortality of the total termites (termites [1]; 5 ppm, 0 days after treatment): 0% | % mortality of the total termites (termites [1]; 5 ppm, 1 day after treatment): 0.5% | % mortality of the total termites (termites [1]; 5 ppm, 2 days after treatment): 1.5% | % mortality of the total termites (termites [1]; 5 ppm, 3 days after treatment): 1.5% | % mortality of the total termites (termites [1]; 5 ppm, 6 days after treatment): 1.5% | % mortality of the total termites (termites [1]; 5 ppm, 7 days after treatment): 6% | % mortality of the total termites (termites [1]; 5 ppm, 8 days after treatment): 6% | % mortality of the total termites (termites [1]; 5 ppm, 9 days after treatment): 7% | % mortality of the total termites (termites [1]; 5 ppm, 14 days after treatment): 7.5% | % mortality of the total termites (termites [1]; 10 ppm, 0 days after treatment): 0% | % mortality of the total termites (termites [1]; 10 ppm, 1 day after treatment): 19.5% | % mortality of the total termites (termites [1]; 10 ppm, 2 days after treatment): 23.5% | % mortality of the total termites (termites [1]; 10 ppm, 3 days after treatment): 27.5% | % mortality of the total termites (termites [1]; 10 ppm, 6 days after treatment): 32.5% | % mortality of the total termites (termites [1]; 10 ppm, 7 days after treatment): 33.5% | % mortality of the total termites (termites [1]; 10 ppm, 8 days after treatment): 35% | % mortality of the total termites (termites [1]; 10 ppm, 9 days after treatment): 35.5% | % mortality of the total termites (termites [1]; 10 ppm, 14 days after treatment): 37.5%

Cc1cc(C2=NCC(c3cc(Cl)cc(Cl)c3)(C(F)(F)F)C2)ccc1C(=O)NC1(C)CSC1 (racemic) [Compound 1b]
% mortality of the total termites (termites [1]; [11]): 0% | % mortality of the total termites (termites [1]; [12]): 1.5% | % mortality of the total termites (termites [1]; [13]): 3.5% | % mortality of the total termites (termites [1]; [14]): 5.5% | % mortality of the total termites (termites [1]; [15]): 6% | % mortality of the total termites (termites [1]; [16]): 6% | % mortality of the total termites (termites [1]; [17]): 6% | % mortality of the total termites (termites [1]; [18]): 6.5% | % mortality of the total termites (termites [1]; [19]): 6.5% | % mortality of the total termites (termites [1]; [3]): 0% | % mortality of the total termites (termites [1]; 2.5 ppm, 1 day after treatment): 10% | % mortality of the total termites (termites [1]; [4]): 19% | % mortality of the total termites (termites [1]; [5]): 22.5% | % mortality of the total termites (termites [1]; [6]): 27% | % mortality of the total termites (termites [1]; [7]): 36% | % mortality of the total termites (termites [1]; [8]): 36.5% | % mortality of the total termites (termites [1]; [9]): 37% | % mortality of the total termites (termites [1]; [10]): 38% | % mortality of the total termites (termites [1]; 5 ppm, 0 days after treatment): 0% | % mortality of the total termites (termites [1]; 5 ppm, 1 day after treatment): 15% | % mortality of the total termites (termites [1]; 5 ppm, 2 days after treatment): 33.5% | % mortality of the total termites (termites [1]; 5 ppm, 3 days after treatment): 40.5% | % mortality of the total termites (termites [1]; 5 ppm, 6 days after treatment): 52.5% | % mortality of the total termites (termites [1]; 5 ppm, 7 days after treatment): 59.5% | % mortality of the total termites (termites [1]; 5 ppm, 8 days after treatment): 60% | % mortality of the total termites (termites [1]; 5 ppm, 9 days after treatment): 61.5% | % mortality of the total termites (termites [1]; 5 ppm, 14 days after treatment): 63.5%

Cc1cc(C2=NOC(c3cc(Cl)cc(Cl)c3)(C(F)(F)F)C2)ccc1C(=O)NC1CSC1 (racemic) [Compound 5]
% mortality of the total termites (termites [1]; [11]): 0% | % mortality of the total termites (termites [1]; [12]): 3% | % mortality of the total termites (termites [1]; [13]): 12% | % mortality of the total termites (termites [1]; [14]): 12% | % mortality of the total termites (termites [1]; [15]): 20% | % mortality of the total termites (termites [1]; [16]): 24% | % mortality of the total termites (termites [1]; [17]): 25% | % mortality of the total termites (termites [1]; [18]): 26.5% | % mortality of the total termites (termites [1]; [19]): 30% | % mortality of the total termites (termites [1]; [3]): 0% | % mortality of the total termites (termites [1]; 2.5 ppm, 1 day after treatment): 15% | % mortality of the total termites (termites [1]; [4]): 31% | % mortality of the total termites (termites [1]; [5]): 32% | % mortality of the total termites (termites [1]; [6]): 42% | % mortality of the total termites (termites [1]; [7]): 46.5% | % mortality of the total termites (termites [1]; [8]): 46.5% | % mortality of the total termites (termites [1]; [9]): 49.5% | % mortality of the total termites (termites [1]; [10]): 56% | % mortality of the total termites (termites [1]; 5 ppm, 0 days after treatment): 0% | % mortality of the total termites (termites [1]; 5 ppm, 1 day after treatment): 20.5% | % mortality of the total termites (termites [1]; 5 ppm, 2 days after treatment): 42% | % mortality of the total termites (termites [1]; 5 ppm, 3 days after treatment): 44% | % mortality of the total termites (termites [1]; 5 ppm, 6 days after treatment): 52.5% | % mortality of the total termites (termites [1]; 5 ppm, 7 days after treatment): 54.5% | % mortality of the total termites (termites [1]; 5 ppm, 8 days after treatment): 56.5% | % mortality of the total termites (termites [1]; 5 ppm, 9 days after treatment): 56.5% | % mortality of the total termites (termites [1]; 5 ppm, 14 days after treatment): 65.5%

N#Cc1nn(-c2c(Cl)cc(C(F)(F)F)cc2Cl)c(N)c1[S+]([O-])C(F)(F)F (stereo not drawn) [Fipronil]
Mortality/average % (termites [2]; Table 1, 0.01 ppm in sand, 1 DAA): 7% | Mortality/average % (termites [2]; Table 1, 0.01 ppm in sand, 2 DAA): 7% | Mortality/average % (termites [2]; Table 1, 0.01 ppm in sand, 3 DAA): 7% | Mortality/average % (termites [2]; Table 1, 0.01 ppm in sand, 7 DAA): 7% | Mortality/average % (termites [2]; Table 1, 0.01 ppm in sand, 21 DAA): 52% | Mortality/average % (termites [2]; Table 1, 0.1 ppm in sand, 1 DAA): 0% | Mortality/average % (termites [2]; Table 1, 0.1 ppm in sand, 2 DAA): 28% | Mortality/average % (termites [2]; Table 1, 0.1 ppm in sand, 3 DAA): 33% | Mortality/average % (termites [2]; Table 1, 0.1 ppm in sand, 7 DAA): 77% | Mortality/average % (termites [2]; Table 1, 0.1 ppm in sand, 21 DAA): 100% | Mortality/average % (termites [2]; Table 2, 0.01 ppm in sand, 1 DAA): 27% | Mortality/average % (termites [2]; Table 2, 0.01 ppm in sand, 2 DAA): 40% | Mortality/average % (termites [2]; Table 2, 0.01 ppm in sand, 3 DAA): 40% | Mortality/average % (termites [2]; Table 2, 0.01 ppm in sand, 7 DAA): 40% | Mortality/average % (termites [2]; Table 2, 0.01 ppm in sand, 21 DAA): 40% | Mortality/average % (termites [2]; Table 2, 0.1 ppm in sand, 1 DAA): 27% | Mortality/average % (termites [2]; Table 2, 0.1 ppm in sand, 2 DAA): 30% | Mortality/average % (termites [2]; Table 2, 0.1 ppm in sand, 3 DAA): 40% | Mortality/average % (termites [2]; Table 2, 0.1 ppm in sand, 7 DAA): 40% | Mortality/average % (termites [2]; Table 2, 0.1 ppm in sand, 21 DAA): 40% | repellency (in words) (termites [2]; fipronil rates tested (0.1 and 0.01 ppm)): not repellent
